Where “and” joins values, the source holds several entries; their conditions need not be identical. Identical values can stand only once. Entries after “also recorded” stand apart in the source; their conditions may differ.
Assays:
[1] = in solution before DMEM; RADA16 assumed 2.5% wt/vol, IEIK13 concentration unknown; cited from earlier work
[2] = 2.5% in water; cited from earlier work
[3] = test system: turbinate reduction surgery (TRS/Turbinoplasty); settings: first follow-up at four weeks; result in words; cited from earlier work
[4] = test system: punch hole injuries to the liver; settings: pig, in vivo; cited from earlier work
[5] = test system: nasal mucosal injuries on the middle turbinate and opposing nasal septum; experiment: Endoscopic grading of synechiae/adhesion formation at day 14 and day 42, sheep model; type: in vivo, Merino sheep; parameters: key to Adhesion score day 14 / Adhesion score day 42: 0: No intranasal adhesions/synechiae; 1: Intranasal adhesion extends less than 25% to septum; Intranasal adhesion extends 25-50% to septum; 3: Intranasal adhesion extends more than 50% to septum; 4: Completely formed adhesion/synechiae extending to septum; settings: for Number of sites, synechiae Grade 0 / Number of sites, synechiae Grade 1 / Number of sites, synechiae Grade 2 / Number of sites, synechiae Grade 3 / Number of sites, synechiae Grade 4: 20 sites per group
Procedure: Post-operative observations—Post recovery from anesthesia, the animals were returned to their pens with ongoing daily monitoring for 14 days, including bloody nasal discharge, temperature, and food and water intake. On each postoperative day, the animals were examined externally by an independent observer, with no involvement in the operation, for the presence of bloody nasal discharges. External blood was cleaned off after each examination followed with irrigation of each nostril using 20 ml of saline solution. Regular irrigation of the nose and sinuses is standard in post-operative care following nasal surgery. The sheep were sedated and examined via endoscope again on day 14 for the presence of adhesions and graded by an independent observer using the grading scheme below for sheep nasal adhesions. Representative endoscopic images for sites (two sites/sides per sheep) treated with PuraSinus (SEQ ID NO:1) are shown in FIG. 1 and untreated control sites are shown in FIG. 2, respectively. The sheep were euthanized at day 42, with a necropsy performed by the same independent observer grading intranasal adhesion formation and extension. […] [table]

[6] = test system: Functional Endoscopic Sinus Surgery (FESS) surgical wound; type: in vivo, human
Source text: Study design—This study was a retrospective chart review of 94 consecutive human patients who underwent FESS and who were operated on by a single surgeon in a single center in Perth, Western Australia. FIGS. 6A and 6B show a flowchart of patients based on extent of surgery and outcomes. Only patients treated with PuraSinus alone (no other hemostatic agent was used) were included in the analysis. Ethics approval was obtained from St John of Good Health Care Human Research Ethics Committee.
Patient population—The study included adult human patients who underwent FESS procedures and also included patients who underwent FESS in combination with nasal surgery (septoplasty and/or turbinoplasty). Both primary and revision cases were included. Patients were discharged the day after surgery with a recommendation to perform saline nasal irrigations no less than four times a day. Patient characteristics, indication for surgery, extent of surgical intervention, and bleeding and adhesion information was recorded.
Surgical categories—Procedures were performed according to the minimally invasive sinus technique (MIST), including combination of maxillary antrostomy, ethmoidectomies, sphenoidotomies and frontal sinus (Draf Ila, or Draf 111), turbinate reduction and/or septoplasty. FESS procedures were categorized into two groups: complete FESS (including all sinuses—maxillary antrostomy, ethmoidectomy, sphenoidotomy, and frontal sinusotomy) or limited FESS (anything less than complete FESS, usually involves antrostomy and ethmoidectomy). The surgical extent was dictated by the patient's condition and the surgeon's clinical judgement.
Material used—PuraSinus (licensed as PuraStat in Australia, 3D-Matrix)/RADA16-I (SEQ ID NO:1) 2.5% w/v in water is a transparent SAP solution supplied sterile in a pre-filled syringe (available in a 3 mL and 5 mL form) ready for use with a thin application nozzle suited for endoscopic catheter administration. The syringe is stored at between 2° C. and 8° C. At completion of the FESS procedure, PuraSinus was applied to the surgical wound in a thin and even layer as close as possible to the bleeding point. A similar application technique has been outlined previously (M. Lee et al., Int. J. Surg. Case Rep. 41: 461-4 (2017)). […] Tissues treated with the hydrogel were visible via endoscope given the gel's transparency.
Outcomes and objectives—The objectives of this study were to evaluate the effectiveness of PuraSinus in rapidly achieving intraoperative hemostasis and to assess the incidence of delayed bleeding ([…]) and synechiae formation via endoscopic observation of the nasal mucosa at follow-up visits. Primary bleeding was defined as bleeding occurring within 24 hours of surgery.
Data analysis—Statistical analysis was performed using descriptive statistics for continuous variables and patient demographics were reported. The rate of successful hemostasis and incidence of synechiae formation were calculated as a proportion of total patients undergoing FESS.

Structure (SMILES): CC(=O)N[C@@H](CCCNC(=N)N)C(=O)N[C@@H](C)C(=O)N[C@@H](CC(=O)O)C(=O)N[C@@H](C)C(=O)N[C@@H](CCCNC(=N)N)C(=O)N[C@@H](C)C(=O)N[C@@H](CC(=O)O)C(=O)N[C@@H](C)C(=O)N[C@@H](CCCNC(=N)N)C(=O)N[C@@H](C)C(=O)N[C@@H](CC(=O)O)C(=O)N[C@@H](C)C(=O)N[C@@H](CCCNC(=N)N)C(=O)N[C@@H](C)C(=O)N[C@@H](CC(=O)O)C(=O)N[C@@H](C)C(N)=O [PuraSinus, Ac-RADARADARADARADA-NH2]
- Median loss modulus G″ [1]: 24 Pa
- Median storage modulus G′ [1]: 384 Pa
- Storage modulus G′ [2]: about 350 Pa
- Postoperative bleeding or adhesion formation [3]: none of their patients experiencing bleeding or adhesion formation postoperatively
- Inflammatory cell infiltration due to the gel in the wound [4]: absence if inflammatory cell infiltration
- Reduction of two-week synechiae score versus Controls ([5]; 2 weeks): 91%
- Reduction of two-week synechiae score versus Gelatin-thrombin treatment ([5]; 2 weeks): 92%
- Reduction of six-week synechiae score ([5]; 6 weeks): 100%
- Sites in which synechiae occurred ([5]; at 2 weeks): 20%
- Sites in which synechiae occurred ([5]; at 6 weeks): 0%
- Adhesion score day 42 ([5]; individual site, grade 0-4): 0
- Adhesion score day 14 ([5]; individual site, grade 0-4, listed as P): 0 (16×) and 1 (Intranasal adhesion extends less than 25% to septum) (3×) and 2 (Intranasal adhesion extends 25-50% to septum)
- Two-week synechiae score ([5]; maximum 4 points, mean±SD): 0.3±0.6 points
- Synechiae formation compared to FLOSEAL and untreated control ([5]; sheep, result in words): lowest observed synechiae formation; also recorded: more effective in inhibiting the formation of synechiae; also recorded: statistically significant lower incidence of adhesions; also recorded: significantly reduced synechiae formation
- Number of sites, synechiae Grade 0 ([5]; six weeks post-surgery): 20
- Number of sites, synechiae Grade 1 ([5]; six weeks post-surgery): 0
- Number of sites, synechiae Grade 2 ([5]; six weeks post-surgery): 0
- Number of sites, synechiae Grade 3 ([5]; six weeks post-surgery): 0
- Number of sites, synechiae Grade 4 ([5]; six weeks post-surgery): 0
- Number of sites, synechiae Grade 0 ([5]; two weeks post-surgery): 16
- Number of sites, synechiae Grade 1 ([5]; two weeks post-surgery): 3
- Number of sites, synechiae Grade 2 ([5]; two weeks post-surgery): 1
- Number of sites, synechiae Grade 3 ([5]; two weeks post-surgery): 0
- Number of sites, synechiae Grade 4 ([5]; two weeks post-surgery): 0
- Blood transfusion required ([6]; human, in vivo): None of the patients in this study required a blood transfusion
- Secondary bleed, patients ([6]; more than 24 hours after surgery, n of 94): 3
- Secondary bleed, rate ([6]; more than 24 hours after surgery, of 94 patients): 3.2%
- Intervention required for bleeding, patients ([6]; n of 94): 4
- Intervention required, primary bleed, patients ([6]; n of 94): 3
- Intervention required, secondary bleed, patients ([6]; n of 94): 1
- Bleed (postoperative), patients ([6]; n of 94 patients): 6
- Hemostatic effectiveness, patients ([6]; no bleeding or no intervention required, n of 94): 90
- Hemostatic effectiveness, rate ([6]; no bleeding or no intervention required, of 94 patients): 95.7%
- Type of intervention: Cautery + Surgiflo, patients ([6]; of 4 interventions): 1
- Type of intervention: Cautery + additional PuraSinus, patients ([6]; of 4 interventions): 1
- Type of intervention: Cautery alone, patients ([6]; of 4 interventions): 1
- Type of intervention: Packing, patients ([6]; of 4 interventions): 1
- Bleeding patients on anticoagulation/antiplatelets post-op ([6]; of 6 bleeds): 1
- Bleeding patients with suspected or confirmed coagulopathy ([6]; of 6 bleeds): 2
- Patients with postoperative bleeding: Complete FESS ([6]; of 6 bleeds): 1
- Patients with postoperative bleeding: Female ([6]; of 6 bleeds): 5
- Patients with postoperative bleeding: Limited FESS ([6]; of 6 bleeds): 5
- Patients with postoperative bleeding: Male ([6]; of 6 bleeds): 1
- Bleed (postoperative), rate ([6]; of 94 patients): 6.4%
- Intervention required for bleeding, rate ([6]; of 94 patients): 4.3% and 4.2%
- Intervention required, primary bleed, rate ([6]; of 94 patients): 3.2%
- Intervention required, secondary bleed, rate ([6]; of 94 patients): 1.1%
- Re-bleeds in patients with primary or secondary bleeds ([6]; result in words): no re-bleeds recorded
- Hemostasis in the absence of other hemostatic agents and devices ([6]; result in words, most patients): effective hemostasis
- Primary bleed, patients ([6]; within 24 hours of surgery, n of 94): 3
- Primary bleed, rate ([6]; within 24 hours of surgery, of 94 patients): 3.2%
